From patent US4837228A, “Antiinflammatory and antimicrobial compounds and compositions” (The University of Mississippi, priority 1982, dated 1989)
Converted amounts (≈) assume the structure as drawn. Where two headings read alike, the source gives them in different places.

Experiments:
Type in all cases: cell-based
Mycobacterium smegmatis [1] = test: MIC, two-fold (broth) serial dilution, M. smegmatis
Experimental: (§1) Both qualitative and quantitative screens were performed. Qualitative screening was accomplished using the agar well diffusion assay technque while quantitative screening was accomplished by the two-fold (broth) serial dilution method to determine the minimum inhibitory concentration (MIC). Innoculation was accomplished with one loop-full of a 1:10 dilution of the 24-hour-old broth culture, (fungal cultures and M.smegmatis more often required 48 to 72 hours of incubation) of the test organisms in sterile water. Streptomycin sulfate was used as a positive control for antibacterial activity while amphitericin B was used as an antifungal positive control. Organisms utilized in the screens included gram-positive, gram-negative, and acid-fast bacteria as well as different types of fungi. […] An intermediate type activity is seen where R is hydrogen. However, where R is lengthened up to C15 a decrease in activity was noted. Total saturation of the two double bonds in the compounds having a methyl side chain lead, in most cases, to an increase in both antifungal and antibacterial activity.

Candida albicans [2] = test: MIC, two-fold (broth) serial dilution, C. albicans
Experimental: as §1

Saccharomyces cerevisiae [3] = test: agar well diffusion assay, S. cerevisiae; conditions: from edge of agar well
Experimental: as §1

Bacillus subtilis [4] = test: agar well diffusion assay, B. subtilis; conditions: from edge of agar well
Experimental: as §1

[5] = test system: Trichophyton mentagrophytes; test: MIC, two-fold (broth) serial dilution, T. mentagrophytes
Experimental: as §1

Mycobacterium smegmatis [6] = test: agar well diffusion assay, M. smegmatis; conditions: from edge of agar well
Experimental: as §1

[7] = test system: Trichophyton mentagrophytes; test: agar well diffusion assay, T. mentagrophytes; conditions: for width of inhibition zone: from edge of agar well
Experimental: as §1

Candida albicans [8] = test: agar well diffusion assay, C. albicans; conditions: from edge of agar well
Experimental: as §1

Saccharomyces cerevisiae [9] = test: MIC, two-fold (broth) serial dilution, S. cerevisiae
Experimental: as §1

[10] = test system: erythrocyte (heat-induced hemolysis); test: erythrocyte membrane stabilization assay (heat-induced erythrocyte hemolysis); conditions: Erythrocyte, 1 × 10^-4 M
Experimental: The published procedure (Proc. Soc. Exp. Biol. Med. 1967; 125; 837-842 Brow et al) for in vitro assay for antiinflammatory agents based on stabilization of erythrocytes was used. All compounds were prepared for administration by dissolving in physiologic saline or suspending in 2% ethanol in saline and the pH adjusted to 7.4 The concentrations tested in one series are given in Table 8. Aspirin (ASA) and phenylbutazone were used as positive controls for comparison of activity. Tests using this procedure were successfully and repeatedly using either 40% or 20% RBC suspensions.

Escherichia coli = test: agar well diffusion assay, E. coli; conditions: from edge of agar well
Experimental: as §1

Staphylococcus aureus [11] = test: MIC, two-fold (broth) serial dilution, S. aureus; conditions: Staphylococcus aureus, read-out: MIC
Experimental: as §1

Staphylococcus aureus [12] = test: agar well diffusion assay, S. aureus; conditions: from edge of agar well
Experimental: as §1

Bacillus subtilis [13] = test: MIC, two-fold (broth) serial dilution, B. subtilis; conditions: Bacillus subtilis, read-out: MIC
Experimental: as §1

Pseudomonas aeruginosa = test: agar well diffusion assay, Ps. aeruginosa; conditions: from edge of agar well
Experimental: as §1

Aspergillus niger = test: agar well diffusion assay, A. niger; conditions: from edge of agar well
Experimental: as §1

[14] = Mycolicibacterium smegmatis, 24 h, read-out: MIC
[15] = Mycolicibacterium smegmatis, 48 h, read-out: MIC
[16] = Trichophyton mentagrophytes, 48 h, read-out: MIC
[17] = Trichophyton mentagrophytes, 72 h, read-out: MIC
[18] = 48 hr, listed as Iso CBC (VIII)
[19] = 72 hr, listed as Iso CBC (VIII)

Row | Structure (SMILES) | MIC (Mycobacterium smegmatis [1]; [14]) | MIC (Mycobacterium smegmatis [1]; [15]) | width of inhibition zone (Saccharomyces cerevisiae [3]; 48 hr) | width of inhibition zone (Saccharomyces cerevisiae [3]; 72 hr) | width of inhibition zone (Bacillus subtilis [4]; 24 hr) | width of inhibition zone (Bacillus subtilis [4]; 48 hr) | MIC [5, 16] | MIC [5, 17] | width of inhibition zone (Mycobacterium smegmatis [6]; 24 hr) | width of inhibition zone (Mycobacterium smegmatis [6]; 48 hr) | width of inhibition zone (Candida albicans [8]; 48 hr) | width of inhibition zone (Candida albicans [8]; 72 hr) | width of inhibition zone (Escherichia coli; 24 hr) | width of inhibition zone (Escherichia coli; 48 hr) | MIC (Staphylococcus aureus [11]; 24 h) | MIC (Staphylococcus aureus [11]; 48 h) | width of inhibition zone (Staphylococcus aureus [12]; 24 hr) | width of inhibition zone (Staphylococcus aureus [12]; 48 hr) | width of inhibition zone (Pseudomonas aeruginosa; 24 hr) | width of inhibition zone (Aspergillus niger; 48 hr) | also measured
1 | CC(C)=CCCC1(C)C=Cc2c(O)cccc2O1 (stereo not drawn) [CBC (VI), 2-methyl-2-(4'-methyl-pent-3'-enyl)-5-hydroxychromene] | 12.5 µg/mL (≈ 51.2 µM) | 12.5 µg/mL (≈ 51.2 µM) | 10. mm | 8. mm | 10. mm | 10. mm | 25 µg/mL (≈ 102 µM) | 25 µg/mL (≈ 102 µM) | 20. mm | 18. mm | 7. mm | 5. mm | 3. mm | 2. mm | 12.5 µg/mL (≈ 51.2 µM) | 12.5 µg/mL (≈ 51.2 µM) | 15. mm | 15. mm | 3. mm | 9. mm | MIC (Candida albicans [2]; 48 hr): 50.0 µg/mL (≈ 205 µM); MIC (Candida albicans [2]; 72 hr): 50.0 µg/mL (≈ 205 µM); MIC (Candida albicans [2]; Candida albicans, 48 h, read-out: MIC): 50 µg/mL (≈ 205 µM); MIC (Candida albicans [2]; Candida albicans, 72 h, read-out: MIC): 50 µg/mL (≈ 205 µM); MIC ([5]; 48 hr): 25.0 µg/mL (≈ 102 µM); MIC ([5]; 72 hr): 25.0 µg/mL (≈ 102 µM); width of inhibition zone ([7]; 48 hr): 20. mm; width of inhibition zone ([7]; 72 hr): 19. mm; MIC (Saccharomyces cerevisiae [9]; 48 hr): 25.0 µg/mL (≈ 102 µM); MIC (Saccharomyces cerevisiae [9]; 72 hr): 25.0 µg/mL (≈ 102 µM); MIC (Saccharomyces cerevisiae [9]; Saccharomyces cerevisiae, 48 h, read-out: MIC): 25 µg/mL (≈ 102 µM); MIC (Saccharomyces cerevisiae [9]; Saccharomyces cerevisiae, 72 h, read-out: MIC): 25 µg/mL (≈ 102 µM); inhibition at 100 µM ([10]; Table 8, read-out: inhibition of heat-induced erythrocyte hemolysis): 69%; MIC (Bacillus subtilis [13]; 24 h): 6.25 µg/mL (≈ 25.6 µM); MIC (Bacillus subtilis [13]; 48 h): 12.5 µg/mL (≈ 51.2 µM); width of inhibition zone (Aspergillus niger; 72 hr): 5. mm
2 | CC(C)=CCCC1(C)C=Cc2ccc(O)cc2O1 (stereo not drawn) [Iso CBC (VII), 2-methyl-2(4'-methyl-pent-3'-enyl)-7-hydroxychromene] | 25 µg/mL (≈ 102 µM) | 25 µg/mL (≈ 102 µM) | 2. mm | 2. mm | 10. mm | 7. mm | 6.25 µg/mL (≈ 25.6 µM) | 6.25 µg/mL (≈ 25.6 µM) | 6. mm | 4. mm | 3. mm | 2. mm | 2. mm | 2. mm | 12.5 µg/mL (≈ 51.2 µM) | 12.5 µg/mL (≈ 51.2 µM) | 10. mm | 10. mm | 4. mm | 1. mm | MIC (Mycobacterium smegmatis [1]; 24 hr): 12.5 µg/mL (≈ 51.2 µM); MIC (Mycobacterium smegmatis [1]; 48 hr): 12.5 µg/mL (≈ 51.2 µM); MIC (Candida albicans [2]; [18]): 12.5 µg/mL (≈ 51.2 µM); MIC (Candida albicans [2]; [19]): 25 µg/mL (≈ 102 µM); width of inhibition zone (Saccharomyces cerevisiae [3]; [18]): 4. mm; width of inhibition zone (Saccharomyces cerevisiae [3]; [19]): 4. mm; width of inhibition zone (Mycobacterium smegmatis [6]; 24 hr, listed as Iso CBC (VIII)): 5. mm; width of inhibition zone (Mycobacterium smegmatis [6]; [18]): 5. mm; agar well diffusion result in words ([7]; one entry across 48 hr and 72 hr): No growth; width of inhibition zone (Candida albicans [8]; [18]): 4. mm; width of inhibition zone (Candida albicans [8]; [19]): 5. mm; inhibition at 100 µM ([10]; read-out: inhibition of heat-induced erythrocyte hemolysis, Table 8): 43%; width of inhibition zone (Pseudomonas aeruginosa; 48 hr): 4. mm
